Measurements: ChEMBL document CHEMBL5316293, “Novel Small-Molecule PD-L1 Inhibitor Induces PD-L1 Internalization and Optimizes the Immune Microenvironment” (J Med Chem, 2023)
Calls of active or inactive are those of the source. The rule behind the calls is not given here.

Assays:
[1] = biological target: Programmed cell death protein 1/Programmed cell death 1 ligand 1 (Homo sapiens, UniProt Q9NZQ7); test: Inhibition of europium-labeled PD-1/biotinylated PD-L1 interaction (unknown origin) preincubated for 15 mins with PD-L1 followed by PD-1 addition and measured after 90 mins by TR-FRET assay; type: protein-complex assay
[2] = Toxicity in ICR mouse assessed as animal death at 5000 mg/kg, po administered via gavage for 2 weeks; type: organism-based; settings: in vivo, 336 h
[3] = Toxicity in ICR mouse assessed as acute side effects at 500 to 5000 mg/kg, po administered via gavage for 2 weeks; type: organism-based; settings: in vivo, 336 h, dose 500-5000 mg/kg
[4] = Toxicity in ICR mouse assessed as reduction in liver weight at 500 to 5000 mg/kg, po administered via gavage for 2 weeks; type: organism-based; settings: in vivo, 336 h, dose 500-5000 mg/kg
[5] = Toxicity in ICR mouse assessed as reduction in kidney weight at 500 to 5000 mg/kg, po administered via gavage for 2 weeks; type: organism-based; settings: in vivo, 336 h, dose 500-5000 mg/kg
[6] = AUC (0 to infinity) in ICR mouse at 5 mg/kg, iv; type: ADME, organism-based; set-up: dose 5 mg/kg, route iv; settings: in vivo
MC38-hPD-L1 [7] = test: Antitumor activity against humanized mouse MC38-hPD-L1 cells implanted in hPD-1 knockin C57BL/6 mouse assessed as tumor growth inhibition at 10 mg/kg, ip administered for 12 days starting from day 7 post tumor implantation and measured every 2 days relative to control; type: functional; settings: MC38-hPD-L1, 288 h, time 12 day, read-out: TGI
MC38-hPD-L1 [8] = test: Antitumor activity against humanized mouse MC38-hPD-L1 cells implanted in hPD-1 knockin C57BL/6 mouse assessed as tumor growth inhibition at 25 mg/kg, ip administered for 12 days starting from day 7 post tumor implantation and measured every 2 days relative to control; type: functional; settings: MC38-hPD-L1, 288 h, time 12 day, read-out: TGI
MC38-hPD-L1 [9] = test: (§1) Antitumor activity against humanized mouse MC38-hPD-L1 cells implanted in hPD-1 knockin C57BL/6 mouse assessed as increase in tumor cell apoptosis by measuring increase in cleaved caspase-3 level at 10 to 25 mg/kg, ip administered for 12 days starting from day 7 post tumor implantation by immunohistochemistry analysis; type: functional, organism-based; settings: dose 10-25 mg/kg, time 12.0 day
MC38-hPD-L1 [10] = test: as §1, with “reduction” for “increase”, “proliferation” for “apoptosis”, “Ki67 expression” for “cleaved caspase-3 level”; type: functional, organism-based; settings: dose 10-25 mg/kg, time 12.0 day
[11] = Antitumor activity against humanized mouse LLC-hPD-L1 cells implanted in hPD-1 knockin C57BL/6 mouse assessed as tumor growth inhibition at 10 mg/kg, ip administered for 12 days starting from day 7 post tumor implantation and measured every 2 days relative to control; type: functional; settings: LLC-hPD-L1, 288 h, time 12 day, read-out: TGI
LLC-hPD-L1 [12] = test: Antitumor activity against humanized mouse LLC-hPD-L1 cells implanted in hPD-1 knockin C57BL/6 mouse assessed as reduction in tumor cell proliferation by measuring reduction in Ki67 expression administered intraperitoneally for 12 days starting from day 7 post tumor implantation by immunohistochemistry analysis; type: functional, cell-based; settings: dose 10-25 mg/kg, route ip, time 12.0 day
MC38-hPD-L1 [13] = test: Antitumor activity against humanized mouse MC38-hPD-L1 cells implanted in hPD-1 knockin C57BL/6 mouse assessed as increase in M1 macrophages at 10 to 25 mg/kg, ip administered for 12 days starting from day 7 post tumor implantation by flow cytometry analysis; type: functional, organism-based; settings: dose 10-25 mg/kg, time 12.0 day
MC38-hPD-L1 [14] = test: Antitumor activity against humanized mouse MC38-hPD-L1 cells implanted in hPD-1 knockin C57BL/6 mouse assessed as increase in IFN-gamma level at 10 to 25 mg/kg, ip administered for 12 days starting from day 7 post tumor implantation by flow cytometry analysis; type: functional, organism-based; settings: dose 10-25 mg/kg, time 12.0 day
LLC-hPD-L1 [15] = test: Antitumor activity against humanized mouse LLC-hPD-L1 cells implanted in hPD-1 knockin C57BL/6 mouse assessed as increase in CD8-positive T cells at 10 to 25 mg/kg, ip administered for 12 days starting from day 7 post tumor implantation by flow cytometry analysis; type: functional, organism-based; settings: dose 10-25 mg/kg, time 12.0 day
LLC-hPD-L1 [16] = test: Antitumor activity against humanized mouse LLC-hPD-L1 cells implanted in hPD-1 knockin C57BL/6 mouse assessed as increase in M1 macrophages at 10 to 25 mg/kg, ip administered for 12 days starting from day 7 post tumor implantation by flow cytometry analysis; type: functional, organism-based; settings: dose 10-25 mg/kg, time 12.0 day
LLC-hPD-L1 [17] = test: Antitumor activity against humanized mouse LLC-hPD-L1 cells implanted in hPD-1 knockin C57BL/6 mouse assessed as increase in CD69-positive CD137-positive T cells at 10 to 25 mg/kg, ip administered for 12 days starting from day 7 post tumor implantation by flow cytometry analysis; type: functional, organism-based; settings: dose 10-25 mg/kg, time 12.0 day
LLC-hPD-L1 [18] = test: Antitumor activity against humanized mouse LLC-hPD-L1 cells implanted in hPD-1 knockin C57BL/6 mouse assessed as reduction in M2 macrophages at 10 to 25 mg/kg, ip administered for 12 days starting from day 7 post tumor implantation by flow cytometry analysis; type: functional, organism-based; settings: dose 10-25 mg/kg, time 12.0 day
MC38-hPD-L1 [19] = test: Antitumor activity against humanized mouse MC38-hPD-L1 cells implanted in hPD-1 knockin C57BL/6 mouse assessed as macrophage polarization into M1 phenotype at 25 mg/kg, ip administered for 12 days starting from day 7 post tumor implantation by flow cytometry analysis; type: functional, organism-based; settings: time 12.0 day
MC38-hPD-L1 [20] = test: Antitumor activity against humanized mouse MC38-hPD-L1 cells implanted in BALB/c nude mouse assessed as reduction in tumor growth at 10 to 25 mg/kg, ip administered for 10 days starting from day 6 post tumor implantation and measured every 2 days; type: functional, organism-based; settings: dose 10-25 mg/kg, time 10.0 day
Homo sapiens [21] = species: Homo sapiens; test: Internalization of PD-L1 in cytoplasm of human RKO cells assessed as decrease in PD-L1 concentration in cell membrane at 1 micromol/L incubated for 6 hrs by fluorescence microscopy; type: functional, cell-based; settings: dose 1.0 µmol/L
Homo sapiens [22] = species: Homo sapiens; test: Internalization of PD-L1 in cytoplasm of human RKO cells transfected with DsRed and human calreticulin assessed as colocalization of PD-L1 with endoplasmic reticulum-resident calreticulin at 1 micromol/L incubated for 12 hrs by fluorescence microscopy; type: functional, cell-based; settings: dose 1.0 µmol/L

Programmed cell death protein 1/Programmed cell death 1 ligand 1, sequence (Q15116 whole entry): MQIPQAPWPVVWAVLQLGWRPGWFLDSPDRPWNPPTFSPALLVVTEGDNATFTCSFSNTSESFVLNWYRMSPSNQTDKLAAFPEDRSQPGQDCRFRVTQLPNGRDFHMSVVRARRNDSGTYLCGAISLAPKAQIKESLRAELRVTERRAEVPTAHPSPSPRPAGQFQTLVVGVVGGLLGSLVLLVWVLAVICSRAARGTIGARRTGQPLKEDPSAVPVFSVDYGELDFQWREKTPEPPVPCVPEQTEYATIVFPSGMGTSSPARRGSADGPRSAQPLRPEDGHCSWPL
Programmed cell death protein 1/Programmed cell death 1 ligand 1, sequence (Q9NZQ7 whole entry): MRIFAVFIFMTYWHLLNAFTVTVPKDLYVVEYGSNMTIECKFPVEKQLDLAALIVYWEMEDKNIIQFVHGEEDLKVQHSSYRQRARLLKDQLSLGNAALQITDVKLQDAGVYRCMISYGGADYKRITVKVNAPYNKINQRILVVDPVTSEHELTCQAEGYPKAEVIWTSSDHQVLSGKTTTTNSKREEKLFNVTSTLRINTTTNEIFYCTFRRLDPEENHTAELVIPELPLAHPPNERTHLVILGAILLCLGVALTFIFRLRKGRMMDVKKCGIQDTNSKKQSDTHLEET

For `COc1cc2c(cc1CN[C@@H](CO)C(=O)O)C(=O)N(c1cccc(-c3ccccc3)c1C)C2=O`, the IC50 [1] was 6.1 nM, the Activity [2] was “Non-Toxic” and the Activity [3] was “Non-Toxic”. For the same compound, the Activity [4] was “Non-Toxic”, the Activity [5] was “Non-Toxic” and the AUC(0-inf) [6] was 3570 ng·h/mL. For the same compound, the inhibition in vivo at 10 mg/kg (MC38-hPD-L1 [7]) was 65.9%, the inhibition in vivo at 25 mg/kg (MC38-hPD-L1 [8]) was 88.8% and the Activity (MC38-hPD-L1 [9]) was “Active”. For the same compound, the Activity (MC38-hPD-L1 [10]) was “Active”, the inhibition in vivo at 10 mg/kg [11] was 57.2% and the Activity (LLC-hPD-L1 [12]) was “Dose-Dependent Effect”. The Activity (MC38-hPD-L1 [13]) was “Active”, the Activity (MC38-hPD-L1 [14]) was “Active” and the Activity (LLC-hPD-L1 [15]) was “Active”. For the same compound, the Activity (LLC-hPD-L1 [16]) was “Active”, the Activity (LLC-hPD-L1 [17]) was “Active” and the Activity (LLC-hPD-L1 [18]) was “Active”. For the same compound, the Activity (MC38-hPD-L1 [19]) was “Active”, the Activity (MC38-hPD-L1 [20]) was “inactive” and the Activity (Homo sapiens [21]) was “Active”. For the same compound, the Activity (Homo sapiens [22]) was “Active”.
